Experiments:
[1] = system: HdhQ111 / HdhQ7 mouse striatal cells; assay: Mitochondrial morphology, anti-Tom20 staining; assay type: cell-based
Experimental: Figure 4 HV-3 treatment reduces mitochondrial damage and cell death in HD cell cultures. Mouse HdhQ7 and HdhQ111 striatal cells were treated with control peptide TAT or peptide HV-3 (3 uM/day for 3 days). (a) Left panel: Mitochondrial membrane potential (MMP) was determined by TMRM fluorescent dye. Right panel: HdhQ111 cells were transfected with control siRNA (siCon) and VCP siRNA (siVCP) for three days. The MMP was determined by TMRM in HdhQ111 cells treated with TAT or HV-3. (b) Mitochondrial morphology was determined by staining cells with anti-Tom20 antibody. Scale bar: 10 μm. The percentage of cells with fragmented mitochondria relative to the total number of cells was quantitated. At least 100 cells per group were counted. (c) Mitochondrial morphology was determined by EM. The length of mitochondria and the number of mitophagosomes were quantitated. At least 90 mitochondria per group were counted. […] HMGB1 release into culture medium was determined by IB analysis with anti-HMGB1 antibody. […] Cell death was determined by the release of LDH. […] (g) Quantitation of neurite length of medium spiny neurons. At least 50 neurons per group were counted by an observer blind to experimental conditions. (h) Left: the MMP was determined by TMRM fluorescent dye. […] Mitochondrial length along neurites of DARPP32/Tuj1-positive neurons was quantitated. […]

HD mouse striatal cells = assay: ER stress response (GRP78 western blot); assay type: cell-based; settings: thapsigargin 1 μM or tunicamycin 10 μg/ml, 16 h, with HV-3 3 µM
Experimental: mouse striatal cells were treated with thapsigargin (1μM) or tunicamycin (10μ g/ml) for 16 hours i n the presence or absence of HV -3 (3 µM). GRP78 total protein levels were determined by western blot analysis. Representative blots of three independent experiments are shown. Actin was used here as a loading control. (b) Tw e n t y -four hours of serum starvation was performed in HD mouse striatal cells.
Caspase-3 activity analysis was performed in the indicated groups. Data are mean ± SEM of three independent experiments. (c) Flag-VCP and GFP-LC3B were co-transfected into HdhQ7 striatal cells.
Total lysates were isolated after 36 hours of transfection. The GFP -LC3B levels were examined by western blot analysis. Actin was used as a loading control. Histogram: quantitation of GFP-LC3B total protein level. Data are mean ± SEM of three independent experiments.
(1 picture or pasted object on this page, not shown here)

[2] = system: HdhQ111 mouse striatal cells; assay: GFP-LC3B puncta; assay type: cell-based; settings: 3 uM/day for 3 days
Experimental: Figure 5 Treatment of HV-3 reduces excessive mitophagy in HD cell cultures and HD mouse brains. (a) HdhQ7 and HdhQ111 cells were treated with control siRNA (con) or VCP siRNA (siVCP) for 48 h. Mitochondria were isolated and LC3 mitochondrial levels were determined by WB. Representative blots are from three independent experiments. The quantitation of LC3 II levels on mitochondria is provided on the right. VADC was used as a loading control. (b) Flag-VCP and GFP-LC3B were co-transfected into wild-type striatal cells. Mitochondria were isolated after 36 h of transfection. The GFP-LC3B levels on mitochondria were examined by WB. VDAC was used as a loading control. Representative blots are from three independent experiments. Histogram: quantitation of GFP-LC3B mitochondrial protein level. HdhQ7 and HdhQ111 cells were treated with control peptide TAT or peptide HV-3 (3 uM/day for 3 days). (c) HdhQ111 cells were transfected with GFP-LC3B for 24 h. The number of GFP-LC3B puncta was quantitated and shown in the histogram. Scale bars: 10 μm. (d) Enzyme activity of lysosomal Cathepsin B was measured using a Cathepsin B assay kit. […] (e) Mitochondrial mass was measured by the fluorescent density of Mitotracker green. […] Histogram: the number of mitophagosomes per 100 μm^2 was counted and quantitated. Fifteen random areas in the striatum of each animal were analyzed. […]

R6/2 mice = assay: DARPP-32 protein level in R6/2 striatal extracts; assay type: in vivo, mouse; settings: 3 mg kg^−1 per day, n=6
Experimental: Male hemizygous R6/2 mice (Tg) and their age-matched wt littermates (5-week-old) were implanted with a 28-day osmotic pump (Alzet, Cupertino CA) containing TAT control peptide or HV-3 peptide, which delivered peptides to the mice at a rate of 3 mg kg^−1 per day. The first pump was implanted subcutaneously in the back of 5-week-old mice between the shoulders and replaced once, after 4 weeks.
Protein concentrations were determined by Bradford assay. Protein was resuspended in Laemmli buffer, loaded on SDS–PAGE, and transferred onto nitrocellulose membranes. Membranes were probed with the indicated antibodies, followed by visualization with ECL. Representative blots have been cropped for presentation. Images of full-size blots are presented in Supplementary Fig. 9.

## CSCC[C@H](NC(=O)[C@@H](NC(=O)[C@H](CC(C)C)NC(=O)[C@@H](NC(=O)[C@H](Cc1c[nH]cn1)NC(=O)CCCCCNC(=O)[C@H](CCCNC(=N)N)NC(=O)[C@H](CCCNC(=N)N)NC(=O)[C@H](CCCNC(=N)N)NC(=O)[C@H](CCC(N)=O)NC(=O)[C@H](CCCNC(=N)N)NC(=O)[C@H](CCCNC(=N)N)NC(=O)[C@H](CCCCN)NC(=O)[C@H](CCCCN)NC(=O)[C@H](CCCNC(=N)N)NC(=O)CNC(=O)[C@@H](N)Cc1ccc(O)cc1)C(C)C)C(C)C)C(=O)N[C@@H](CS)C(=O)N[C@@H](C)C(=O)N[C@H](C(N)=O)[C@@H](C)O [HV-3]
[1]; HdhQ111 cells, 3 uM/day for 3 days, anti-Tom20
  fragmented mitochondria: reduced the number of fragmented mitochondria
[1]; wt counterparts of the HD models
  mitochondrial morphology, wt: only minor effects
HD mouse striatal cells
  ER stress response (GRP78): no effect on the ER stress response
[2]
  number of GFP-LC3B puncta: reduced by treatment with HV-3
R6/2 mice
  DARPP-32 protein level: significantly increased DARPP-32 levels in the two mouse models
